Test results reported in US12331059B2 (priority 2019, dated 2025).

tested on: MV4-11 cells; assay: cells; format: cell-based; settings: Homo sapiens, MV4-11, 48 h

Compared with `Cc1ncsc1-c1ccc(CNC(=O)C2CC(O)CN2C(=O)C(NC(=O)CCOCCOCCNC(=O)OCCCC2OC3OC4(C)CCC5C(C)CCC(C2C)C35OO4)C(C)(C)C)cc1` (stereo not drawn) [CL-2], `Cc1ncsc1-c1ccc(CNC(=O)C2CC(O)CN2C(=O)C(NC(=O)CCOCCOCCNC(=O)OCCC2OC3OC4(C)CCC5C(C)CCC(C2C)C35OO4)C(C)(C)C)cc1` (stereo not drawn) [CL-18] is 4.5-fold higher in IC50: 0.59 µM for the first, 2.66 µM for the second. The first is the more potent here.

`Cc1ncsc1-c1ccc(CNC(=O)C2CC(O)CN2C(=O)C(NC(=O)CCOCCOCCOCCNC(=O)OCCCC2OC3OC4(C)CCC5C(C)CCC(C2C)C35OO4)C(C)(C)C)cc1` (stereo not drawn) [CL-3] and `Cc1ncsc1-c1ccc(CNC(=O)C2CC(O)CN2C(=O)C(NC(=O)CCOCCOCCOCCNC(=O)OCCC2OC3OC4(C)CCC5C(C)CCC(C2C)C35OO4)C(C)(C)C)cc1` (stereo not drawn) [CL-19] are within 1.5-fold of each other in IC50: 0.52 µM for the first, 0.5 µM for the second.

Compared with `Cc1ncsc1-c1ccc(CNC(=O)C2CC(O)CN2C(=O)C(NC(=O)CNC(=O)OCCCC2OC3OC4(C)CCC5C(C)CCC(C2C)C35OO4)C(C)(C)C)cc1` (stereo not drawn) [CL-4], `Cc1ncsc1-c1ccc(CNC(=O)C2CC(O)CN2C(=O)C(NC(=O)CCNC(=O)OCCCC2OC3OC4(C)CCC5C(C)CCC(C2C)C35OO4)C(C)(C)C)cc1` (stereo not drawn) [CL-8] is 3.8-fold lower in IC50: 0.91 µM for the first, 0.24 µM for the second. The second is the more potent here.

Compared with `Cc1ncsc1-c1ccc(CNC(=O)C2CC(O)CN2C(=O)C(NC(=O)CCCNC(=O)OCCCC2OC3OC4(C)CCC5C(C)CCC(C2C)C35OO4)C(C)(C)C)cc1` (stereo not drawn) [CL-5], `Cc1ncsc1-c1ccc(CNC(=O)C2CC(O)CN2C(=O)C(NC(=O)CCCCNC(=O)OCCCC2OC3OC4(C)CCC5C(C)CCC(C2C)C35OO4)C(C)(C)C)cc1` (stereo not drawn) [CL-6] is 9.6-fold higher in IC50: 0.55 µM for the first, 5.3 µM for the second. The first is the more potent here.

Compared with `Cc1ncsc1-c1ccc(CNC(=O)C2CC(O)CN2C(=O)C(NC(=O)Cc2ccc(CNC(=O)OCCCC3OC4OC5(C)CCC6C(C)CCC(C3C)C46OO5)cc2)C(C)(C)C)cc1` (stereo not drawn) [CL-7], `Cc1ncsc1-c1ccc(CNC(=O)C2CC(O)CN2C(=O)C(NC(=O)Cc2ccc(CNC(=O)OCCC3OC4OC5(C)CCC6C(C)CCC(C3C)C46OO5)cc2)C(C)(C)C)cc1` (stereo not drawn) [CL-23] is 13-fold higher in IC50: 0.46 µM for the first, 6.2 µM for the second.

First: Cc1ncsc1-c1ccc(CNC(=O)C2CC(O)CN2C(=O)C(NC(=O)CCOCCNC(=O)CC2OC3OC4(C)CCC5C(C)CCC(C2C)C35OO4)C(C)(C)C)cc1 (stereo not drawn) [CL-9]
Second: Cc1ncsc1-c1ccc(CNC(=O)C2CC(O)CN2C(=O)C(NC(=O)CCOCCOCCNC(=O)CC2OC3OC4(C)CCC5C(C)CCC(C2C)C35OO4)C(C)(C)C)cc1 (stereo not drawn) [CL-10]
The IC50 of the first is 9.5-fold lower: 4.67 µM for the first, 44.5 µM for the second.

First: Cc1ncsc1-c1ccc(CNC(=O)C2CC(O)CN2C(=O)C(NC(=O)CCOCCOCCOCCNC(=O)CC2OC3OC4(C)CCC5C(C)CCC(C2C)C35OO4)C(C)(C)C)cc1 (stereo not drawn) [CL-11]
Second: Cc1ncsc1-c1ccc(CNC(=O)C2CC(O)CN2C(=O)C(NC(=O)CCOCCNC(=O)OCCC2OC3OC4(C)CCC5C(C)CCC(C2C)C35OO4)C(C)(C)C)cc1 (stereo not drawn) [CL-17]
The IC50 of the first is 99-fold higher: 29.6 µM for the first, 0.3 µM for the second.

Compared with `Cc1ncsc1-c1ccc(CNC(=O)C2CC(O)CN2C(=O)C(NC(=O)CNC(=O)CC2OC3OC4(C)CCC5C(C)CCC(C2C)C35OO4)C(C)(C)C)cc1` (stereo not drawn) [CL-12], `Cc1ncsc1-c1ccc(CNC(=O)C2CC(O)CN2C(=O)C(NC(=O)CCCNC(=O)CC2OC3OC4(C)CCC5C(C)CCC(C2C)C35OO4)C(C)(C)C)cc1` (stereo not drawn) [CL-13] is 2.8-fold higher in IC50: 1.1 µM for the first, 3.1 µM for the second.

`Cc1ncsc1-c1ccc(CNC(=O)C2CC(O)CN2C(=O)C(NC(=O)Cc2ccc(CNC(=O)CC3OC4OC5(C)CCC6C(C)CCC(C3C)C46OO5)cc2)C(C)(C)C)cc1` (stereo not drawn) [CL-15] and `Cc1ncsc1-c1ccc(CNC(=O)C2CC(O)CN2C(=O)C(NC(=O)CCNC(=O)OCCC2OC3OC4(C)CCC5C(C)CCC(C2C)C35OO4)C(C)(C)C)cc1` (stereo not drawn) [CL-24] are within 1.5-fold of each other in IC50: 0.52 µM for the first, 0.5 µM for the second.

Going from `Cc1ncsc1-c1ccc(CNC(=O)C2CC(O)CN2C(=O)C(NC(=O)CCCNC(=O)OCCC2OC3OC4(C)CCC5C(C)CCC(C2C)C35OO4)C(C)(C)C)cc1` (stereo not drawn) [CL-21] to `Cc1ncsc1-c1ccc(CNC(=O)C2CC(O)CN2C(=O)C(NC(=O)CCCCNC(=O)OCCC2OC3OC4(C)CCC5C(C)CCC(C2C)C35OO4)C(C)(C)C)cc1` (stereo not drawn) [CL-22], the IC50 falls from 0.84 µM to 0.2 µM (4.2-fold). The second is the more potent here.

`Cc1ncsc1-c1ccc(CNC(=O)C2CC(O)CN2C(=O)C(NC(=O)CCOCCNC(=O)C23CC4CC(C2)C2(OOC5(CCCCC5)O2)C(C4)C3)C(C)(C)C)cc1` (stereo not drawn) [CL-25] and `Cc1ncsc1-c1ccc(CNC(=O)C2CC(O)CN2C(=O)C(NC(=O)CCOCCOCCNC(=O)C23CC4CC(C2)C2(OOC5(CCCCC5)O2)C(C4)C3)C(C)(C)C)cc1` (stereo not drawn) [CL-26] are within 1.5-fold of each other in IC50: 5.5 µM for the first, 8.1 µM for the second.

First: Cc1ncsc1-c1ccc(CNC(=O)C2CC(O)CN2C(=O)C(NC(=O)CCOCCOCCOCCNC(=O)C23CC4CC(C2)C2(OOC5(CCCCC5)O2)C(C4)C3)C(C)(C)C)cc1 (stereo not drawn) [CL-27]
Second: Cc1ncsc1-c1ccc(CNC(=O)C2CC(O)CN2C(=O)C(NC(=O)CCNC(=O)C23CC4CC(C2)C2(OOC5(CCCCC5)O2)C(C4)C3)C(C)(C)C)cc1 (stereo not drawn) [CL-32]
The IC50 of the first is 3.6-fold higher: 12 µM for the first, 3.38 µM for the second. The second is the more potent here.

Going from `Cc1ncsc1-c1ccc(CNC(=O)C2CC(O)CN2C(=O)C(NC(=O)CNC(=O)C23CC4CC(C2)C2(OOC5(CCCCC5)O2)C(C4)C3)C(C)(C)C)cc1` (stereo not drawn) [CL-28] to `Cc1ncsc1-c1ccc(CNC(=O)C2CC(O)CN2C(=O)C(NC(=O)CCCNC(=O)C23CC4CC(C2)C2(OOC5(CCCCC5)O2)C(C4)C3)C(C)(C)C)cc1` (stereo not drawn) [CL-29], the IC50 falls from 9.72 µM to 3.5 µM (2.8-fold). The second is the more potent here.

First: Cc1ncsc1-c1ccc(CNC(=O)C2CC(O)CN2C(=O)C(NC(=O)CCCCNC(=O)C23CC4CC(C2)C2(OOC5(CCCCC5)O2)C(C4)C3)C(C)(C)C)cc1 (stereo not drawn) [CL-30]
Second: Cc1ncsc1-c1ccc(CNC(=O)C2CC(O)CN2C(=O)C(NC(=O)Cc2ccc(CNC(=O)C34CC5CC(C3)C3(OOC6(CCCCC6)O3)C(C5)C4)cc2)C(C)(C)C)cc1 (stereo not drawn) [CL-31]
The IC50 of the first is 2.7-fold higher: 8.31 µM for the first, 3.04 µM for the second. The second is the more potent here.

`Cc1ncsc1-c1ccc(CNC(=O)C2CC(O)CN2C(=O)C(NC(=O)CCNC(=O)CCC(=O)NN2C(=O)C(C)C3CCC(C)C4CCC5(C)OOC43C2O5)C(C)(C)C)cc1` (stereo not drawn) [CL-40] showed an IC50 of 6.08 µM.

tested on: U937 leukemia cells; assay: not given; parameters: species or system NSG mice; settings: mouse

With `Cc1ncsc1-c1ccc(CNC(=O)C2CC(O)CN2C(=O)C(NC(=O)CCNC(=O)OCCCC2OC3OC4(C)CCC5C(C)CCC(C2C)C35OO4)C(C)(C)C)cc1` (stereo not drawn) [CL-8] the “inhibition towards the growth of U937 leukemia cells in vivo” value was “strong inhibition”.

same assay, conditions: mouse, in vivo

Compared with `Cc1ncsc1-c1ccc(CNC(=O)C2CC(O)CN2C(=O)C(NC(=O)CCNC(=O)OCCCC2OC3OC4(C)CCC5C(C)CCC(C2C)C35OO4)C(C)(C)C)cc1` (stereo not drawn) [CL-8], `C[C@H]1[C@H](OC(=O)CCC(=O)O)O[C@@H]2O[C@@]3(C)CC[C@H]4[C@H](C)CC[C@@H]1[C@@]24OO3` [artesunate, reference compound] is higher in “The proportion of human leukemia cells in bone marrow of mice” value: 0.38 ± 0.08 for the first, 91.28 ± 2.20 for the second.

Compared with `Cc1ncsc1-c1ccc(CNC(=O)C2CC(O)CN2C(=O)C(NC(=O)CCNC(=O)OCCCC2OC3OC4(C)CCC5C(C)CCC(C2C)C35OO4)C(C)(C)C)cc1` (stereo not drawn) [CL-8], `C[C@H]1[C@H](OC(=O)CCC(=O)O)O[C@@H]2O[C@@]3(C)CC[C@H]4[C@H](C)CC[C@@H]1[C@@]24OO3` [artesunate, reference compound] is higher in “The proportion of human leukemia cells in peripheral blood of mice” value: 0.96 ± 0.16 for the first, 21.92 ± 2.58 for the second.

Going from `Cc1ncsc1-c1ccc(CNC(=O)C2CC(O)CN2C(=O)C(NC(=O)CCNC(=O)OCCCC2OC3OC4(C)CCC5C(C)CCC(C2C)C35OO4)C(C)(C)C)cc1` (stereo not drawn) [CL-8] to `C[C@H]1[C@H](OC(=O)CCC(=O)O)O[C@@H]2O[C@@]3(C)CC[C@H]4[C@H](C)CC[C@@H]1[C@@]24OO3` [artesunate, reference compound], the “The proportion of human leukemia cells in spleen of mice” value rises from 11.39 ± 21.3 to 49.77 ± 9.28.
